Assay results published in US20160176769A1, “PARTICULATE NITRIFICATION INHIBITOR SYSTEMS” (Ballance Agri-Nutrients Limited, priority 2008, published 2016).

System: nitrification in soil
Assay: closed soil incubation experiment (nitrate and ammonium analyses of incubated soil)
Settings: urea approx. 200 kg N/ha, Horotiu silt loam, 20°C
Procedure: A closed soil incubation experiment was established with the three compositions or products. The beat treated DCD was added at 10 kg/ha and the DCD/P fertiliser blends were added at 10 kg DCD/ha equivalent.
A control (urea only) and 2 DCD rates (10 kg DCD/ha and 1 kg DCD/ha) were included. Ten kg/ha is a standard rate of DCD application and matches the DCD/P fertiliser rate while 1 kg/ha matches the DCD rate applied in the heat treated product which was 10% W /W DCD. All treatments received urea solution at approximately 200 kg N/ha, and were replicated three times.
The soil was a Horotiu silt loam (Yellow Brown Loam) collected to a depth of approximately 100 mm from a site on the Ruakuta farm. The soil was sieved through a 4 mm sieve and stored at 4 ° C. overnight. Sub-samples were taken to determine the moisture content, soil water holding capacity and initial inorganic N concentration. To measure moisture content, subsamples were dried at 105° C. for 24 hours.
Stock solutions of urea, DCD and heated treated DCD were prepared. The compositions were diluted in water to aid dispersion through the soil and the more accurate addition of small amounts of material. The DCD/fertiliser blends however were weighed and applied dry as the material was largely insoluble.
Each replicated treatment was added to 150 g of dry soil equivalent (195 g field moist soil) in a resealable plastic bag. Distilled water was added as necessary to increase the soil moisture to around 60% of water holding capacity. The contents of each bag were mixed thoroughly, and the bags sealed to include as much air as possible to ensure an aerobic environment was maintained. The bags were placed in an incubator set at 20°C. for the duration of the experiment (14 days).
Soil sub-samples were taken from the bags at 2, 5, 9 and 14 days after incubation commenced for ammonium and nitrate analysis. The equivalent of approximately 5 g dry weight of soil was weighed into 150 mL flasks, 50 mL of 2 M potassium chloride (KCl) was added and the flasks shaken for one hour using end-over-end shakers (Mulvaney, 1996). The extractant was filtered (Whatman #42 filter paper) before being frozen prior to analysis for nitrate-N and ammoniumn-N using a Skalar segmented flow analyser. The data were statistically analysed using the ANOVA directive of GenStat (10th Edition) and L.S.D. (least significant difference) were calculated.

[1] = Day 2, applied at 10 kg/ha (blends 10 kg DCD/ha equivalent)
[2] = Day 5, applied at 10 kg/ha (blends 10 kg DCD/ha equivalent)
[3] = Day 9, applied at 10 kg/ha (blends 10 kg DCD/ha equivalent)
[4] = Day 14, applied at 10 kg/ha (blends 10 kg DCD/ha equivalent)

N#CN=C(N)N [DCD, dicyandiamide]
Average ammonium concentration in soil (Day 2, applied at 1 kg/ha): 149.7 μg NH4—N/g soil | Average nitrate concentration in soil (Day 2, applied at 1 kg/ha): 55.8 μg NO3—N/g soil | Average ammonium concentration in soil [1]: 159.7 μg NH4—N/g soil | Average nitrate concentration in soil [1]: 48.1 μg NO3—N/g soil | Average ammonium concentration in soil (Day 5, applied at 1 kg/ha): 81.6 μg NH4—N/g soil | Average nitrate concentration in soil (Day 5, applied at 1 kg/ha): 139.4 μg NO3—N/g soil | Average ammonium concentration in soil [2]: 106.2 μg NH4—N/g soil | Average nitrate concentration in soil [2]: 108.7 μg NO3—N/g soil | Average ammonium concentration in soil (Day 9, applied at 1 kg/ha): 23.2 μg NH4—N/g soil | Average nitrate concentration in soil (Day 9, applied at 1 kg/ha): 193.7 μg NO3—N/g soil | Average ammonium concentration in soil [3]: 63.1 μg NH4—N/g soil | Average nitrate concentration in soil [3]: 148.1 μg NO3—N/g soil | Average ammonium concentration in soil (Day 14, applied at 1 kg/ha): 1.3 μg NH4—N/g soil | Average nitrate concentration in soil (Day 14, applied at 1 kg/ha): 233.8 μg NO3—N/g soil | Average ammonium concentration in soil [4]: 22.1 μg NH4—N/g soil | Average nitrate concentration in soil [4]: 216.6 μg NO3—N/g soil
